From ChEMBL document CHEMBL4616683, “Inhibitors of Hypoxia-Inducible Factors as Treatment for Cancer” (ACS Med Chem Lett, 2020)

Key:
[1] = biological target: T1, Endothelial PAS domain-containing protein 1 (Homo sapiens, UniProt Q99814)
Description: Inhibition of human recombinant His6Gb1-tagged HIF2alpha PAS B domain (240 to 350 residues)/human recombinant His6/FLAG-tagged ARNT PAS B domain (356 to 470 residues) interaction incubated for 15 mins by AlphaScreen assay

[2] = biological target: T1, Endothelial PAS domain-containing protein 1; remark: listed apart in the source
Description: Inhibition of HIF2-alpha in human 786-0 cells harboring HRE-Luc2P reporter construct incubated for 48 hrs by ONE-Glo EX reagent based luminescence assay

T1 sequence (Q99814 whole entry, the tested form may be a part): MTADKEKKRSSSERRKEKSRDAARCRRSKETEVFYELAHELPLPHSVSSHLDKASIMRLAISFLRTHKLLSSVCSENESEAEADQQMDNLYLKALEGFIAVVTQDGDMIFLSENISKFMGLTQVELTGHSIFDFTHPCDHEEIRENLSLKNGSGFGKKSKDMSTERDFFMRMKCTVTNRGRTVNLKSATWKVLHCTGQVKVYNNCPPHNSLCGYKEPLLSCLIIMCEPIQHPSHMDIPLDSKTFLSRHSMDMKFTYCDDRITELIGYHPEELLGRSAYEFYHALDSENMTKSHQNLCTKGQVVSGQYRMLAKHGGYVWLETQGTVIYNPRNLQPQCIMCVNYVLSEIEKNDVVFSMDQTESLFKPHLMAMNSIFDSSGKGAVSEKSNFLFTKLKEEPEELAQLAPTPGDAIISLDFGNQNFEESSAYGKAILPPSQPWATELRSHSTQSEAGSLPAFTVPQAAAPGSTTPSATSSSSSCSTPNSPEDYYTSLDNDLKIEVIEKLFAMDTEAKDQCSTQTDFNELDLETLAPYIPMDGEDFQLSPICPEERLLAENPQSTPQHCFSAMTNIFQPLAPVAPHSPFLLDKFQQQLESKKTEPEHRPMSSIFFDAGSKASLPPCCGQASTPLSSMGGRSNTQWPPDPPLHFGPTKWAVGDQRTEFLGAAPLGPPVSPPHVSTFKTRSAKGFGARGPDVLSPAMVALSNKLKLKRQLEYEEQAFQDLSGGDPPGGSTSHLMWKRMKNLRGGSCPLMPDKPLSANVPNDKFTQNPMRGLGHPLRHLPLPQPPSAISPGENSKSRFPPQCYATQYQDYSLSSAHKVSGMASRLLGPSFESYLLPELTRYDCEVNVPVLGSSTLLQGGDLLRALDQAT

IC50 [1]: > 1 µM
IC50 [2]: > 1 µM
Compound: Cn1nc(C(F)(F)F)cc1-c1sc(S(C)(=O)=O)c2c1CCC(F)(F)[C@H]2O
